Reference: US8722343B2, “Methods and compositions for the diagnosis and treatment of diabetes” (priority 2008, dated 2014)

Columns and labels:
GLT1 = biological target: T1, GLT1 (Mus musculus, UniProt P43006); experiment: Na-dependent [3H]-D-aspartate uptake in βTC3 cells; assay type: cell-based
T1 construct: Since GLT1 is endogenously expressed in beta-TC3; endogenous in cells; host or cells: βTC3 mouse pancreatic beta-cell line
Description: (§1) 2D: 3H-D-Aspartate uptake. Four days after plating the Na-dependent (NaCl) and Na-independent (ChCl) [3H]-D-Aspartate uptake was measured in αTC1 and βTC3 cells. Data are expressed as cpm/well/10 min and represent the mean±SE of at least three independent experiments performed in triplicate. * (NaCl vs ChCl) P<0.001; ° (DHK versus control) P<0.001.
3×10^5 βTC3 cells/well were plated onto 24-well culture plates and the Na-dependent [3H]-D-Aspartate uptake was measured in the presence or the absence of increasing DHK concentrations (0.05-0.3 mM). Data are expressed as cpm/well/10 min and represent the mean±SE of at least three independent experiments performer in triplicate. * (DHK versus controls) P<0.001.
150.000 cells/well were plated in a 24-wells plate, and grown until confluence. After two washes in sodium-free solution (150 mM ChCl, 2 mM KCl, 1 mM CaCl2, 1 mM MgCl2, 10 mM Hepes pH 7.5), cells were incubated for 10 minutes in 200 μl of Na^+-dependent (150 mM NaCl 2 mM KCl, 1 mM CaCl2, 1 mM MgCl2, 10 mM Hepes pH 7.5) or Na^+-independent (sodium-free solution) uptake solution containing 5 μCi/ml of [^3H]D-Aspartic acid (specific activity 37 Ci/mmol; Amersham Biosciences). The amino acid uptake was stopped by washing the cells twice in ice-cold sodium-free solution. Cells were dissolved in 150 μl of SDS 1% for liquid scintillation counting. […]

αTC1 cells = experiment: Na-dependent [3H]-D-aspartate uptake in αTC1 cells; assay type: cell-based, mouse; conditions: DHK in uptake solution
Description: as §1
150.000 cells/well were plated in a 24-wells plate, and grown until confluence. After two washes in sodium-free solution (150 mM ChCl, 2 mM KCl, 1 mM CaCl2, 1 mM MgCl2, 10 mM Hepes pH 7.5), cells were incubated for 10 minutes in 200 μl of Na^+-dependent (150 mM NaCl 2 mM KCl, 1 mM CaCl2, 1 mM MgCl2, 10 mM Hepes pH 7.5) or Na^+-independent (sodium-free solution) uptake solution containing 5 μCi/ml of [^3H]D-Aspartic acid (specific activity 37 Ci/mmol; Amersham Biosciences). The amino acid uptake was stopped by washing the cells twice in ice-cold sodium-free solution. Cells were dissolved in 150 μl of SDS 1% for liquid scintillation counting. For transport inhibition, DHK was added to the uptake solution at the indicated concentrations.

[1] = MTT cell viability assay in βTC3 cells; assay type: cell-based, mouse; conditions: mouse; 0.05 mM DHK, five days; read-out: decrease in RGR (βTC3 viability)
Description: 1A: Glutamate induces a dose-dependent beta-cell death. 24 hrs after plating, αTC1 and βTC3 cells were incubated for five days with the indicated glutamate concentrations and viability was assessed by MTT assay. Data are presented as % Relative Growth Rate (RGR) versus controls (100%) and represent the mean±SE of at least 7 independent experiments (n=6). * p<0.01 vs ctrl; ° p<0.01 vs Glu 5 mM in αTC1.
1C: β-cell death is prevented by pharmacological inhibition of ionotropic channels. 24 hrs after plating, αTC1 and βTC3 cells were incubated for five days with 0.025 mM CNQX (left panel) or 0.1 mM APV (right panel), in the presence or the absence of 5 mM glutamate and viability was assessed by MTT assay. Data are presented as % RGR versus control samples (100%) and represent the mean±SE of three independent experiments (n=5). * p<0.05
6B. MTT assay. 24 hrs after plating, αTC1 and βTC3 cells were incubated for five days with different DHK concentrations and viability was assessed by MTT assay. Data are presented as % RGR versus control (100%) and represent the mean±SE of three independent experiments (n=8). * (DHK versus control) p<0.05
8B: MTT assay: 24 hrs after plating, βTC3 cells were incubated for five days with the indicated ceftriaxone concentrations in the presence or absence of 5 mM glutamate and viability was assayed by MTT assay. Data are presented as % RGR versus control (100%) and represent the mean±SE of three independent experiments (n=8). *(ceftriaxone versus relative control) p<0.05.
βTC3 and αTC1 cells were derived from progeny of transgenic mice expressing SV40 large T-antigen under control of the rat insulin II 5′-flanking region or rat preproglucagon 5′-flanking region, respectively (Powers et al, 1990) and were originally provided by Douglas Hanahan (Department of Biochemistry and Biophysics, University of California, San Francisco, Calif.). βTC3 were grown in RPMI 1640 11 mM glucose, supplemented with 10% heat inactivated fetal bovine serum, 2 mM L-glutamine, and 100 IU/ml streptomycin/penicillin, as previously described (Galbiati et al, 2002). Experiments were performed between the 27 and 33 passage of cell culture.
3-(4,5-Dimethylthiazol-2-yl)-2,5-diphenyltetrazolium bromide (MTT) assay. βTC3 cells were seeded at a density of 8×10^3 cells/well onto 96-well culture plates. Cells were allowed to attach and grow for 24 h in standard medium. Then medium was replaced with fresh medium containing glutamate, DHK (Dihydrokainic Acid, Sigma Aldrich), glutamate receptor inhibitors APV and CNQX (Sigma Aldrich) or ceftriaxone (Sigma Aldrich) at the indicated concentrations. […] Coloured formazan product was determined spectrophotometrically at 540 nm. 20 islets/tube were used to assess viability in human isolated islets. Data are expressed as % Relative Growth Rate (% RGR) versus control samples.

T1 sequence (P43006 1-569 isoform P43006-2): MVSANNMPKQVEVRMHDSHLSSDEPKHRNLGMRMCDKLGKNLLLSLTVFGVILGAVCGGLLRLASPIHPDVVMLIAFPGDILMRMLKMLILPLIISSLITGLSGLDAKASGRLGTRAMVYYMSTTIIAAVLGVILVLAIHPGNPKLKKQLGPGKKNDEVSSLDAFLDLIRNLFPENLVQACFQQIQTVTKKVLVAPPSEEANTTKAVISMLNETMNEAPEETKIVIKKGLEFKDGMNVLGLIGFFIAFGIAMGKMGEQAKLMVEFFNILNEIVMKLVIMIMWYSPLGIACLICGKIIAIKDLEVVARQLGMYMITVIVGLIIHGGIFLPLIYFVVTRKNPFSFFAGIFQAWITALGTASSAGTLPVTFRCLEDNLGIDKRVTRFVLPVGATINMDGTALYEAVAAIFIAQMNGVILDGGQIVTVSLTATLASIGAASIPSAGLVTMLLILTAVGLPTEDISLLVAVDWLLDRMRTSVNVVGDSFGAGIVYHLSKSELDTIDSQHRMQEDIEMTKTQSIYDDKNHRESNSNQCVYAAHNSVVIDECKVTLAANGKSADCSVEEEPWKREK

Compound: CC(C)[C@H]1CN[C@H](C(=O)O)[C@H]1CC(=O)O [DHK, Dihydrokainic Acid]
- Na-dependent aspartate uptake (GLT1; 1 mM DHK): completely inhibited
- IC50 (GLT1; DHK 0.05-0.3 mM, read-out: IC50, inhibition of Na-dependent D-aspartate uptake): 50 µM
- Na-dependent D-aspartate uptake (αTC1 cells): not inhibited
- cytotoxicity at 5 days, 0.05 mM [1]: 6.17%
